Data published in PubChem BioAssay (NCI).
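Grown in 96-well plates, cells were treated for 48 hours with each compound at five concentrations. Insufficient inhibition: endpoint recorded as highest concentration tested. GI50 is the concentration that inhibits growth by half. At the TGI there is no net growth.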

Key:
Assay in all cases: NCI-60 cell line screen, 48 h; in the data active means GI50 below about 0.43 µM; inactive means the rest
[1] = test system: BT-549 breast
[2] = test system: UACC-62 melanoma
[3] = test system: MDA-MB-435
[4] = test system: SNB-19 CNS
[5] = test system: HS 578T breast
[6] = test system: TK-10 renal
[7] = test system: M14 melanoma
[8] = test system: IGROV1 ovarian
[9] = test system: 786-0 renal
[10] = test system: HCT-116 colon
[11] = test system: SW-620 colon
[12] = test system: UACC-257 melanoma
[13] = test system: NCI-H522 lung
[14] = test system: KM12 colon
[15] = test system: EKVX NSCLC
[16] = test system: HCT-15 colon
[17] = test system: DU-145 prostate
[18] = test system: NCI-H460 lung
[19] = test system: HCC-2998 colon
[20] = test system: HL-60(TB) leukemia
[21] = test system: A549 NSCLC
[22] = test system: HOP-62 NSCLC
[23] = test system: SF-539 CNS
[24] = test system: NCI-H226 lung
[25] = test system: SK-MEL-2 melanoma
[26] = test system: OVCAR-8 ovarian
[27] = test system: U251 CNS
[28] = test system: HOP-92 NSCLC
[29] = test system: RPMI-8226 leukemia
[30] = test system: MCF7 breast
[31] = test system: UO-31 renal
[32] = test system: OVCAR-3 ovarian
[33] = test system: SNB-75 CNS
[34] = test system: SR leukemia
[35] = test system: SN12C renal
[36] = test system: SK-OV-3 ovarian
[37] = test system: NCI-H23 lung
[38] = test system: A498 renal
[39] = test system: SF-295 CNS
[40] = test system: MALME-3M melanoma
[41] = test system: LOX IMVI melanoma
[42] = test system: HT29 colon
[43] = test system: OVCAR-4 ovarian
[44] = test system: COLO 205 colon
[45] = test system: MOLT-4 leukemia
[46] = test system: ACHN renal
[47] = test system: CCRF-CEM leukemia
[48] = test system: PC-3 prostate
[49] = test system: SK-MEL-28 melanoma
[50] = test system: SK-MEL-5 melanoma
[51] = test system: T-47D breast
[52] = test system: OVCAR-5 ovarian
[53] = test system: MDA-MB-231 breast
[54] = test system: K-562 leukemia
[55] = test system: CAKI-1 renal
[56] = test system: NCI/ADR-RES ovarian
[57] = test system: SF-268 CNS

O=C(CCCCCCNC(=O)C(O)(O)C(F)(F)F)Nc1ccc(Br)cc1
12.5 µM: TGI [52]
24.6 µM: TGI [35]
8.46 µM: TGI [50]
18.7 µM: TGI [49]
7.5 µM: TGI [32] | TGI [41]
14.8 µM: TGI [31]
6.2 µM: TGI [2]
inactive: GI50 [1] 6.42 µM | GI50 [2] 1.59 µM | GI50 [3] 3.64 µM | GI50 [4] 5.58 µM | GI50 [5] 3.84 µM | GI50 [6] 1.09 µM | GI50 [7] 7.12 µM | GI50 [8] 4.48 µM | GI50 [9] 4.47 µM | GI50 [10] 1.12 µM | GI50 [11] 1.57 µM | GI50 [12] 6.7 µM | GI50 [13] 4.19 µM | GI50 [14] 4.82 µM | GI50 [15] 5.49 µM | GI50 [16] 5.23 µM | GI50 [17] 5.46 µM | GI50 [18] 2.41 µM | GI50 [19] 5.35 µM | GI50 [20] 2.21 µM | GI50 [21] 8.39 µM | GI50 [22] 4.29 µM | GI50 [23] 5.87 µM | GI50 [24] 8.33 µM | GI50 [25] 3.29 µM | GI50 [26] 2.32 µM | GI50 [27] 3.64 µM | GI50 [28] 0.554 µM | GI50 [29] 1.9 µM | GI50 [30] 7.77 µM | GI50 [31] 1.98 µM | GI50 [32] 2.22 µM | GI50 [33] 3 µM | GI50 [34] 1.74 µM | GI50 [35] 5.01 µM | GI50 [36] 1.95 µM | GI50 [37] 4.6 µM | GI50 [38] 1.09 µM | GI50 [39] 2.73 µM | GI50 [40] 1.54 µM | GI50 [41] 2.9 µM | GI50 [42] 5.11 µM | GI50 [43] 13.4 µM | GI50 [44] 5.02 µM | GI50 [45] 1.42 µM | GI50 [46] 2.65 µM | GI50 [47] 1.9 µM | GI50 [48] 2.86 µM | GI50 [49] 2.38 µM | GI50 [50] 4.14 µM | GI50 [51] 1.69 µM | GI50 [52] 1.96 µM | GI50 [53] 2.12 µM | GI50 [54] 1.2 µM | GI50 [55] 7.02 µM | GI50 [56] 4.12 µM | GI50 [57] 5.78 µM
8.17 µM: TGI [39]
7.16 µM: TGI [11]
18.1 µM: TGI [4]
24.3 µM: TGI [14] | TGI [51]
3.25 µM: TGI [28]
17.6 µM: TGI [27]
20.1 µM: TGI [25]
13.2 µM: TGI [19]
16.6 µM: TGI [53]
9.68 µM: TGI [38]
18.6 µM: TGI [56]
> 33 µM: TGI [1] | TGI [3] | TGI [6] | TGI [7] | TGI [9] | TGI [10] | TGI [12] | TGI [15] | TGI [17] | TGI [18] | TGI [20] | TGI [21] | TGI [22] | TGI [23] | TGI [24] | TGI [26] | TGI [29] | TGI [30] | TGI [33] | TGI [34] | TGI [40] | TGI [42] | TGI [43] | TGI [45] | TGI [47] | TGI [48] | TGI [54] | TGI [55]
17.7 µM: TGI [44] | TGI [46]
22.8 µM: TGI [13]
14.1 µM: TGI [8] | TGI [16]
17.3 µM: TGI [36]
30.1 µM: TGI [5]
21.8 µM: TGI [57]
19.6 µM: TGI [37]
